Values of other authors, collected in patent US10022349B2, “Cadotril particles” (Johnson & Johnson Consumer Inc., priority 2014, dated 2018).

Experiments:
[1] = poor aqueous solubility, dissolution rate limited absorption

| Structure (SMILES) | solubility in water (in words) | Biopharmaceutical Classification System class [1] | water solubility (room temperature) |
| --- | --- | --- | --- |
| CC(=O)SC[C@H](Cc1ccccc1)C(=O)NCC(=O)OCc1ccccc1 [dexecadotril, N—[(R)-2-Benzyl-3-(acetylthio)propionyl]glycine benzyl ester] | insoluble in water | – | – |
| CC(=O)SCC(Cc1ccccc1)C(=O)NCC(=O)OCc1ccccc1 (racemic) [Racecadotril, (RS)-benzyl N-[3-(acetylthio)-2-benzylpropanoyl]glycinate] | insoluble in water | class II | about 10 micrograms/ml |
| CC(=O)SC[C@@H](Cc1ccccc1)C(=O)NCC(=O)OCc1ccccc1 [ecadotril, N—[(S)-2-[(Acetylthio)methyl]-1-oxo-3-phenylpropyl]glycinebenzyl ester] | insoluble in water | – | – |
